Values joined by “and” are separate entries in the source; they are usually repeats but may differ in a detail not shown here. Identical values can stand only once.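 The compound was tested at five concentrations on cells cultured in 96-well plates, with a 48-hour exposure period. The concentration for 50% growth inhibition is given as GI50. TGI marks complete inhibition of growth.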
Assays:
Experiment in all cases: DTP human tumour cell line panel, 48 h
U251 CNS = test system: U251 CNS
SK-MEL-2 melanoma = test system: SK-MEL-2 melanoma
LOX IMVI melanoma = test system: LOX IMVI melanoma
OVCAR-5 ovarian = test system: OVCAR-5 ovarian
UO-31 renal = test system: UO-31 renal
CCRF-CEM leukemia = test system: CCRF-CEM leukemia
HCT-116 colon = test system: HCT-116 colon
SNB-75 CNS = test system: SNB-75 CNS
SNB-19 CNS = test system: SNB-19 CNS
SK-OV-3 ovarian = test system: SK-OV-3 ovarian

| SMILES | TGI (U251 CNS) | TGI (SK-MEL-2 melanoma) | TGI (LOX IMVI melanoma) | TGI (OVCAR-5 ovarian) | TGI (UO-31 renal) | TGI (CCRF-CEM leukemia) | TGI (HCT-116 colon) | TGI (SNB-75 CNS) | TGI (SNB-19 CNS) | TGI (SK-OV-3 ovarian) | GI50 (U251 CNS) | GI50 (SK-MEL-2 melanoma) | GI50 (LOX IMVI melanoma) | GI50 (OVCAR-5 ovarian) | GI50 (UO-31 renal) | GI50 (CCRF-CEM leukemia) | GI50 (HCT-116 colon) | GI50 (SNB-75 CNS) | GI50 (SNB-19 CNS) | GI50 (SK-OV-3 ovarian) |
| --- | --- | --- | --- | --- | --- | --- | --- | --- | --- | --- | --- | --- | --- | --- | --- | --- | --- | --- | --- | --- |
| O=c1ccnc2c1ccc1[nH]cccc12 | > 100 µM | > 100 µM | > 100 µM | > 100 µM | > 100 µM | > 100 µM | > 100 µM | > 100 µM | > 100 µM | > 100 µM | – | – | – | – | – | – | – | – | – | – |
| CC(=O)N/C(=C\c1cccc([N+](=O)[O-])c1)c1nc2c3c(ccc2[nH]1)C(=O)c1ccccc1C3=O | > 100 µM | > 100 µM | > 100 µM | > 100 µM | > 69.3 µM | > 100 µM | > 100 µM | > 100 µM | > 100 µM | > 100 µM | – | – | – | – | – | – | – | – | – | – |
| C[C@@H]1N=C(c2ccc(Br)cc2)Nc2nc3ccccn3c2C1=O | > 100 µM | > 100 µM | > 100 µM | > 100 µM | > 100 µM | > 100 µM | > 100 µM | 7.06 µM | > 100 µM | > 100 µM | 6.64 µM | 15.7 µM | 6.34 µM | 23.5 µM | 8.11 µM | 6.56 µM | 4.04 µM | 0.703 µM | 7.45 µM | 4.41 µM |
| Cn1nc(-c2ccccc2)nc1[N+](=O)[O-] | > 10 µM | > 10 µM | > 10 µM | > 10 µM | > 10 µM | > 10 µM | > 10 µM | > 10 µM | > 10 µM | > 10 µM | – | – | – | – | – | – | – | – | – | – |
| Nc1cc(-c2cccc(OC(F)(F)F)c2)nc2ccc(N3CCCC3)cc12 | – | 12.8 µM and > 100 µM | – | 99.2 µM and > 100 µM | 17.7 µM and > 100 µM | 11.6 µM and > 52.5 µM and > 49.6 µM | – | 12.2 µM and > 100 µM and > 64.4 µM | 26.9 µM and > 100 µM | > 100 µM | 0.041 µM and 0.0391 µM and 0.0371 µM | 0.4 µM and 0.0887 µM and 0.787 µM | 0.0528 µM and 0.0485 µM and 0.046 µM | 0.113 µM and 0.0843 µM and 0.0687 µM | 0.119 µM and 0.15 µM and 0.0758 µM | 0.0381 µM and 0.0302 µM and 0.0259 µM | 0.0384 µM and 0.0323 µM and 0.0258 µM | 0.0427 µM and 0.0525 µM and 0.0495 µM | 0.0458 µM and 0.0431 µM and 0.0437 µM | 0.071 µM and 0.0456 µM and 0.0406 µM |
| c1cc(OCCN2CCCCC2)ccc1CNc1ccc2nc(CCC3CCCCC3)[nH]c2c1 | 2.94 µM | 3.62 µM | 3.19 µM | 5.64 µM | 2.85 µM | 8.34 µM | 3.57 µM | 4.08 µM | 10.4 µM | 4.18 µM | 1.49 µM | 1.88 µM | 1.75 µM | 2.04 µM | 1.49 µM | 1.97 µM | 1.64 µM | 1.62 µM | 3.05 µM | 2.07 µM |
| COc1ccc2c(CN3CCC[C@H]3C(=O)O)cc3cc4c(cc3c2c1)OCO4 | > 100 µM | 29.8 µM | 43.6 µM | > 100 µM | > 100 µM | > 100 µM | > 100 µM | 30.1 µM | > 100 µM | 51.1 µM | 13.2 µM | 12.6 µM | 5.06 µM | 38.1 µM | 17 µM | 10.2 µM | 4.8 µM | 11.4 µM | 14 µM | 14.6 µM |
| C=C[C@H]1CCC/C=C/[C@@H]2C[C@H](O)C[C@H]2[C@H](O)/C=C/C(=O)O1 | > 100 µM | 0.0944 µM | 0.0528 µM | > 100 µM | > 100 µM | > 100 µM | 0.0576 µM | > 100 µM | > 100 µM | > 93.5 µM | 0.0428 µM | 0.0303 µM | 0.0222 µM | 0.0504 µM | 0.0341 µM | 0.0418 µM | 0.0238 µM | < 0.01 µM | 0.0542 µM | 0.0406 µM |
| COc1ccc(C(=O)OC2C=COC(C)C2OC(=O)c2ccc(OC)cc2)cc1 (configuration not stated) | 97.9 µM | 43.2 µM | 29.8 µM | > 100 µM | > 100 µM | 52.4 µM | 21.8 µM | 51.7 µM | > 100 µM | > 100 µM | – | – | – | – | – | – | – | – | – | – |
| COc1cc2c(Oc3ccc4[nH]c(C)cc4c3F)ccnc2cc1OCC1(N)CC1 | 7.15 µM | 3.79 µM | 3.2 µM | 10.3 µM | 3.69 µM | 12.9 µM | 10.6 µM | 2.46 µM | 28.1 µM | 80.2 µM | 0.674 µM | 1.68 µM | 1.26 µM | 3.37 µM | 0.864 µM | 1.57 µM | 0.745 µM | 0.651 µM | 1.64 µM | 3.61 µM |
| O=C(Nc1ccc(F)cc1)C(=O)C(C1OC(=O)c2ccccc21)[N+](=O)[O-] (configuration not stated) | > 100 µM | > 100 µM | > 100 µM | > 100 µM | > 100 µM | > 100 µM | > 100 µM | > 100 µM | > 100 µM | > 100 µM | – | – | – | – | – | – | – | – | – | – |
| C=CCN(CC=C)C(=O)c1cc(C)nc2c1c(=O)n(-c1ccccc1)c(=O)n2CC(O)CN1CCN(c2ncccn2)CC1 (configuration not stated) | > 100 µM | > 100 µM | > 100 µM | > 100 µM | > 100 µM | > 100 µM | > 100 µM | > 100 µM | > 100 µM | > 100 µM | > 100 µM | > 100 µM | > 100 µM | > 100 µM | > 100 µM | > 100 µM | > 100 µM | 29 µM | > 100 µM | > 100 µM |
| CCOC(=O)C1=C(Nc2ccc(Cl)cc2Cl)OC/C1=N\NS(=O)(=O)c1ccc(C)cc1 | > 100 µM | > 100 µM | > 100 µM | > 100 µM | > 100 µM | > 100 µM | > 100 µM | > 100 µM | > 100 µM | > 100 µM | – | – | – | – | – | – | – | – | – | – |
| C=CCC(C(=O)O)c1ccccc1 (configuration not stated) | > 100 µM | > 100 µM | > 100 µM | > 100 µM | > 100 µM | > 100 µM | > 100 µM | > 100 µM | > 100 µM | > 100 µM | – | – | – | – | – | – | – | – | – | – |
| O=C([O][Hg][CH2]C1COCC([CH2][Hg][O]C(=O)c2ccccc2)O1)c1ccccc1 (configuration not stated) | 2.12 µM | 29.6 µM | 4.2 µM | 35.9 µM | 3.39 µM | 5.08 µM | 2.93 µM | 29.3 µM | 40 µM | 43 µM | 0.622 µM | 13.2 µM | 1.73 µM | 19.2 µM | 1.82 µM | 0.804 µM | 1.56 µM | 15.6 µM | 19.2 µM | 21.8 µM |

— PubChem BioAssay (NCI)
